Assay results taken from US12286401B2, “Small molecules that sensitize HIV-1 infected cells to antibody dependent cellular cytotoxicity” (THE TRUSTEES OF THE UNIVERSITY OF PENNSYLVANIA, priority 2018, dated 2025).

Experiments:
[1] = tested on: CH58TF infected primary CD4+ T-cells; assay: Recognition of HIV-1 infected cells by 17b (flow cytometry cell-surface staining); type: cell-based; settings: for fold induction at 50 µM: Human immunodeficiency virus 1, T-cell, read-out: Fold Over DMSO (17b, n = 1)
Method: (§1) Cell-surface staining of primary CD4+ T cells from healthy HIV uninfected individuals or CEM-NKr cells is performed, as described in Prevost, “Influence of the Envelope gp120 Phe 43 Cavity on HIV-1 Sensitivity to Antibody-Dependent Cell-Mediated Cytotoxicity Responses,” 2017, J. Virol 91; Richard, “CD4 mimetics sensitize HIV-1-infected cells to ADCC,” 2015, Proc. Natl. Acad. Sci. USA, 112:E2687-2694; Richard, “Small CD4 Mimetics Prevent HIV-1 Uninfected Bystander CD4+ T Cell Killing Mediated by Antibody-dependent Cell-mediated Cytotoxicity,” 2016, EBioMedicine 3:122-134; Veillette, “The HIV-1 gp120 CD4-Bound Conformation Is Preferentially Targeted by Antibody-Dependent Cellular Cytotoxicity-Mediating Antibodies in Sera from HIV-1-Infected Individuals,” 2015, J. Virol., 89:545-551; Veillette, “Interaction with cellular CD4 exposes HIV-1 envelope epitopes targeted by antibody-dependent cell-mediated cytotoxicity,” 2014, J. Virol., 88:2633-2644; Richard, “Uninfected Bystander Cells Impact the Measurement of HIV-Specific Antibody-Dependent Cellular Cytotoxicity Responses,” 2018, MBio. 9(2): e00358-18; Richard, “BST-2 Expression Modulates Small CD4-Mimetic Sensitization of HIV-1-Infected Cells to Antibody-Dependent Cellular Cytotoxicity,” 2017, J. Virol. 91(11):e00219-17. Binding of HIV-1 infected cells by HIV+ sera (1:1000 dilution) or anti-Env Abs (such as 17b) is performed […] in vitro infection at 37° C. in presence of different concentrations of the MCG analogs or with equivalent volume of vehicle (DMSO). Cells infected with HIV-1 primary isolates are stained intracellularly for HIV-1 p24 using the Cytofix/Cytoperm Fixation/Permeabilization Kit (BD Biosciences, Mississauga, ON, Canada) and then fluorescent anti-p24 mAb (PE-anti-p24, clone KC57; Beckman Coulter/Immunotech, Hialeah, FL) (1:100 final concentration). The percentage of infected cells (p24^+ or GFP+ cells) is determined by gating the living cell population based on the viability dye staining. Samples are analyzed on an LSRII cytometer (BD Biosciences, Mississauga, ON, Canada) and data analysis is performed using FlowJo vX0.7 (Tree Star, Ashland, OR, USA).
(§2) Briefly, Primary CD4 T cells isolated from PBMC were infected with HIV-1CH58TF for 48 hours. For cell surface staining, 5 μg/ml 17b (FIG. 15A) or 1:1000 diluted HIV+ plasma (n=15) (FIG. 15B) were used in the presence of the different MCG analogs (50 μM), (+)-BNM-III-170 or with an equivalent volume of vehicle (DMSO). An Alexa Fluor 647-conjugated anti-human IgG secondary Ab was then used for fluorescent labeling. For ADCC (FIG. 15C), infected cells were used as target cells in a FACS-based ADCC assay that measures the killing of infected (p24+ cells). See, Madani, 2016, J. Virol., 90:5031-5046. The assay determines susceptibility to ADCC mediated by a 1/1,000 dilution of plasma from 15 HIV-1-infected individuals in the presence of the different MCG analogs (50 μM), (+)-BNM-III-170 (50 μM) or with an equivalent volume of vehicle (DMSO). Correlation between cell-surface staining with HIV+ plasma and ADCC was calculated using the Spearman rank correlation (FIG. 15D).

[2] = Solubility in PBS; type: physicochemical; settings: Yes/NO
[3] = tested on: CH58TF infected primary CD4+ T-cells; assay: HIV+ patient sera/plasma recognition of CH58TF infected primary CD4+ T-cells (flow cytometry cell-surface staining); type: cell-based, HIV-1; settings: for fold induction at 50 µM: Human immunodeficiency virus 1, T-cell, read-out: Fold Over DMSO (patient sera, n = 3)
Method: as §1
HIV+ Patient Sera (n=3) Recognition of CH58TF Infected Primary CD4+ T-Cells
Staining with patient sera and 50 μM of compounds given as a fold change over DMSO (vehicle).
as §2

[4] = tested on: HIV-1JR-FL EnvΔCT expressed at the surface of HOS cells; assay: Cell-based ELISA (CBE), 17b readout; settings: MCG analogs 50 μM; BNM-III-170 5 μM; 2G12 and DMSO normalized
Method: Detection of trimeric HIV-1 Env at the surface of HOS cells was performed by cell-based ELISA, as described in Desormeaux, “The highly conserved layer-3 component of the HIV-1 gp120 inner domain is critical for CD4-required conformational transitions,” J. Virol. 87:2549-2562; Alsahafi, “Effects of the I559P gp41 change on the conformation and function of the human immunodeficiency virus (HIV-1) membrane envelope glycoprotein trimer,” 2015, PLoS One 10:e0122111; and Veillette, “Conformational evaluation of HIV-1 trimeric envelope glycoproteins using a cell-based ELISA assay,” 2014, J. Vis. Exp., 91:51995. To enhance cell-surface expression of HIV-1 EnvRF a stop codon was introduced to replace the codon for Gly 711, truncating the cytoplasmic tail (ACT). Briefly, HOS cells were seeded in T-75 flasks (3×10^6 cells per flask) and transfected the next day with 22.5 μg of Env-expressing plasmids (wild-type and mutants S375W, S375T, H66A, A582T/L587A, etc) using the standard polyethylenimine (PEI, Polyscience Inc, PA, USA) transfection method. Twenty-four hours after transfection, cells were plated in 384-wells plates (2×10^4 cells per well). One day later, cells were washed twice with blocking buffer (10 mg/mL non-fat dry milk, 1.8 mM CaCl2), 1 mM MgCl2, 25 mM Tris, pH 7.5 and 140 mM NaCl) and then incubated for 30 minutes at room temperature with different concentrations of MCG analogs or equivalent volume of vehicle (DMSO). Cells were then incubated for an additional 1 h at room temperature with anti-HIV-1 Env monoclonal antibodies recognizing CD4-induced gp120 epitopes (17b, A32), CD4-binding site gp120 epitopes (VRC03, VRC01, F105, and b12), gp120 V3 glycans (19b, PGT126, PGT122, and 10.1074), gp120 outer domain (2G12), and gp120-gp41 interface (PGT151 and VRC34) epitopes. All ligands were diluted in blocking buffer. A horseradish peroxidase-conjugated antibody specific for the Fc region of human or mouse IgG (Pierce) was then incubated with the samples for 45 minutes at room temperature. For all conditions, cells were washed 5 times with blocking buffer and 5 times with washing buffer (1.8 mM CaCl2), 1 mM MgCl2, 25 mM Tris, pH 7.5 and 140 mM NaCl). HRP enzyme activity was determined after the addition of 20 μl per well of a 1:1 mix of Western Lightning oxidizing and luminol reagents (Perkin Elmer Life Sciences). Light emission was measured with an LB 941 TriStar luminometer (Berthold Technologies) and analysis with Graph Pad software.
The data of Table 2 is given as the fold over BNM-III-170 (5 μM) of Cell-Based ELISA with MCG Analogs (50 μM)—17b readout, 2G12 and DMSO normalized.
To identify molecules able to expose vulnerable Env epitopes, a cell-based ELISA (CBE) assay was adapted, capable of measuring conformational changes of membrane-bound trimeric Env as described in Veillette, 2014, J. Vis. Exp. doi:10.3791/51995:51995; Haim, 2011, PLoS Pathog 7:e1002101, into a high-throughput screening (HTS) platform (FIG. 10A). Briefly, the cytoplasmic-tail deleted HIV-1JR-FL Tier-2/3 Env was expressed on the surface of HOS cells in a 384-well-plate format. The cytoplasmic tail of Env was deleted to enhance Env expression at the cell surface and therefore enhance the sensitivity of the CBE assay. See, Veilette and Haim, 2009, PLoS Pathog 5:e100036. Small molecules or, as a positive control, soluble (sCD4) were added to expose the HIV-1JR-FL EnvΔCT epitope that can be recognized by the CD4i antibody 17b. See, Wyatt, 1995, J. Virol. 69:5723-5733; Rizzuto, 1998, Science 280:1949-1953.
17b binding was detected by a horseradish peroxidase-conjugated (HRP) second antibody, and HRP enzyme activity was measured by Western Lightning oxidizing and luminal reagents. 17b binding in the presence of sCD4 was set as the control (FIG. 10B, blue dots), small molecules that enhanced 17b binding above 25% of the one induced by sCD4 were retested in quadruplicate and only one molecule (UM0059920) was deemed a true positive (FIG. 10B, red dots). […]

SMILES	fold induction at 50 µM [1]	Solubility (in PBS) [2]	fold induction at 50 µM [3]	Fold over BNM-III-170 - 17b binding (±0.05) [4]	Fold Over DMSO (17b, n = 1) ([1]; 50 μM of compounds, 17b staining)	Fold Over DMSO (patient sera, n = 3) ([3]; 50 μM of compounds, staining with HIV+ patient sera, CH58TF infected primary CD4+ T-cells)
O=C(Nc1ccc(Cl)c(F)c1)C1CNc2ccccc2C1 (stereo not drawn) [MCG-III-209]	3.23	Yes	1.82	–	–	–
CCS(=O)(=O)N1CCC[C@H](C(=O)Nc2ccc(F)c(F)c2)C1 [(S)-MCG-III-085-C04]	3.95	Yes	1.68	0.26 fold	–	–
CS(=O)(=O)N1CCNC(C(=O)Nc2ccc(Cl)c(F)c2)C1 (stereo not drawn) [MCG-III-216-A02]	1.3	Yes	1.03	0.10 fold	–	–
CS(=O)(=O)N1CCC[C@H](C(=O)Nc2ccc(Cl)c(Cl)c2)C1 [(S)-MCG-III-085-A03]	3.34	Yes	1.46	0.19 fold	–	–
O=C(Nc1ccc(Cl)c(F)c1)C1CNCCO1 (stereo not drawn) [MCG-III-196]	–	Yes	–	–	2.595 fold	1.499 fold
CCS(=O)(=O)N1CC(C(=O)Nc2ccc(Cl)c(F)c2)Cc2ccccc21 (stereo not drawn) [MCG-III-214-A02]	5.16	Yes**	3.25	–	–	–
CCN1CC(C(=O)Nc2ccc(Cl)c(F)c2)Cc2ccccc21 (stereo not drawn) [MCG-III-201]	1.39	Yes	0.989	–	–	–
Cn1cnc(S(=O)(=O)N2CCOC(C(=O)Nc3ccc(Cl)c(F)c3)C2)c1 (stereo not drawn) [MCG-III-211-A04]	3.61	Yes	1.63	0.35 fold	–	–
CCS(=O)(=O)N1CCC[C@H](C(=O)Oc2ccc(Cl)c(F)c2)C1 [(S)-MCG-III-213-A02]	1.07	Yes	1.03	0.07 fold	–	–
CS(=O)(=O)N1CCC[C@H](C(=O)Nc2ccc(C(F)(F)F)cc2)C1 [(S)-MCG-III-027-A04]	1.07	Yes	1.4	0.17 fold	–	–
CS(=O)(=O)N1CCC(C(=O)Nc2ccc(Cl)c(F)c2)C1 (stereo not drawn) [MCG-III-157-A01]	–	Yes	1.85	0.36 fold	–	–
CCS(=O)(=O)N1CCC(C(=O)Nc2ccc(Cl)c(F)c2)C1 (stereo not drawn) [MCG-III-157-A02]	–	Yes	1.64	0.27 fold	–	–
Cn1cnc(S(=O)(=O)N2CCCC(NC(=O)c3ccc(Cl)c(F)c3)C2)c1 (stereo not drawn) [MCG-III-157-C04]	–	Yes	0.897	0.04 fold	–	–
CCS(=O)(=O)N1CCCC(NC(=O)c2ccc(Cl)c(F)c2)C1 (stereo not drawn) [MCG-III-157-C02]	–	Yes	1.05	0.07 fold	–	–
Cn1cnc(S(=O)(=O)N2CCC(C(=O)Nc3ccc(Cl)c(F)c3)C2)c1 (stereo not drawn) [MCG-III-157-A04]	–	Yes	1.28	0.34 fold	–	–
O=C(Nc1ccc(Cl)c(F)c1)[C@H]1CCCN(S(=O)(=O)C(F)(F)F)C1 [(S)-MCG-III-132]	–	Yes	1.58	0.27 fold	–	–
O=C(Nc1ccc(Cl)c(F)c1)[C@H]1CCCN(C(=O)Oc2ccccc2)C1 [(S)-MCG-III-188-A03]	3.11	–	4.61	0.47 fold	–	–
CS(=O)(=O)N1CCCC(C(=O)Nc2ccc(Cl)c(F)c2)C1 (stereo not drawn) [MCG-III-157-B01]	–	Yes	1.48	0.42 fold	–	–
O=C(Nc1ccc(F)c(F)c1)[C@H]1CCCN(S(=O)(=O)c2ccccc2)C1 [(S)-MCG-III-085-D04]	3.15	–	1.84	0.28 fold	–	–
